Molecular target: ClpP1P2 (Mycobacterium tuberculosis (strain ATCC 25618 / H37Rv), UniProt P9WPC3+P9WPC5)
Test: in vitro assay to detect presence of AMC directly proportional to the activity of ClpP1P2. GHDDI collaboration.
Format: functional

ClpP1P2, sequence (P9WPC5 whole entry): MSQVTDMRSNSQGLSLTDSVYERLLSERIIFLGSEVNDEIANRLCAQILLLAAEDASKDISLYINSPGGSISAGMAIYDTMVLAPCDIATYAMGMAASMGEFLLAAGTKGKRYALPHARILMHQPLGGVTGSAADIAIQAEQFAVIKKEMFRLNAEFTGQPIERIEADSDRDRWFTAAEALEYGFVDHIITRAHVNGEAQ
ClpP1P2, sequence (P9WPC3 whole entry): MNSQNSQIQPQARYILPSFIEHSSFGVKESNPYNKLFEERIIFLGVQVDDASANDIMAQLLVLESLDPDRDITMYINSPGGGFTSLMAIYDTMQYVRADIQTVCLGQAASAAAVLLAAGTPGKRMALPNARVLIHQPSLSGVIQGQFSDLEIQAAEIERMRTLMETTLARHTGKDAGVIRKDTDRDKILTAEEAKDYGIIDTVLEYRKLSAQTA

| SMILES | IC50 |
| --- | --- |
| COCc1nnc(NC(=O)CN2C(=O)c3ccccc3NC2C(C)C)s1 (stereo not drawn) | > 100 µM |
| O=C(c1cncc(NCC2COc3ccccc3C2)n1)N1CCCC1 (stereo not drawn) | > 100 µM |
| CCC(CNC(=O)Nc1cnn(CC)c1)N1CCc2ccccc2C1 (stereo not drawn) | > 100 µM |
| NC(=O)C1CCN(c2nc3nccc(-c4ccncc4)c3c(=O)[nH]2)CC1 | > 100 µM |
| CCOC1CCN(C(=O)NCCc2ccn(-c3ccccc3)n2)CC1 | > 100 µM |
| O=S(=O)(c1ccccc1)N1CCOCC(Cc2cccnc2)C1 (stereo not drawn) | > 100 µM |
| CC(C)N1CC[C@@](C)(O)[C@H](n2ccc(=O)[nH]c2=O)C1 | > 100 µM |
| Cc1cccc(CN(C(=O)NCc2ccccn2)C2CC2)c1 | > 100 µM |
| CCOc1ccc2[nH]c(=O)c(CN3CCC(O)CC3)cc2c1 | > 100 µM |
| Cc1nc(C(=O)N2CCC(c3cc(CCO)n(C)n3)C2)co1 (stereo not drawn) | > 100 µM |
| c1cnnc(N2CCCC(NCc3nnc(-c4ccco4)o3)C2)c1 (stereo not drawn) | > 100 µM |
| COc1ccc(C2Nc3cc(Cl)ccc3C3=NCCN32)cc1CO (stereo not drawn) | > 100 µM |
| CNc1cncc(C2CCN(C(=O)c3cnco3)CC2)n1 | > 100 µM |
| CN(C)c1ccnc(-c2ccnc3c2ccn3C)n1 | > 100 µM |
| Cc1cnn(CCNCc2csc(-c3ccsc3)n2)c1 | > 100 µM |
| Cn1cnc2ccc(NC(=O)CC3CCN(S(C)(=O)=O)CC3)cc21 | > 100 µM |
| CC(=O)N(Cc1ncc(C)o1)C1CCN(Cc2cc(C)on2)C1 (stereo not drawn) | > 100 µM |
| CC(Cn1ccnc1)NC(=O)NCCc1cccs1 (stereo not drawn) | > 100 µM |
| Cc1nc(N2CCCC2)ccc1NCc1ccccn1 | > 100 µM |
| OCCNc1nc(Nc2ccccc2)c2nccnc2n1 | > 100 µM |
| CNC(=O)c1cc2c(nc1NCC(C)C)CCN(C)CC2 | > 100 µM |
| N[C@H]1CN(C(=O)c2ccccc2OCCc2ccccc2)C[C@@H]1C1CC1 | > 100 µM |
| Cc1nc(CN2CCC(O)(c3ccccc3F)CC2)c2ccccn12 | > 100 µM |
| CCn1ccnc1CN1CCN(CC(O)c2cccc(F)c2)CC1 (stereo not drawn) | > 100 µM |
| Cc1sc2ncc(-c3ccnc(NC4CCN(C)CC4)n3)c(=O)n2c1C | > 100 µM |

| SMILES | IC50 |
| --- | --- |
| CCN(CC)c1ccc(NS(=O)(=O)c2cnn(C(C)C)c2)cn1 | > 100 µM |
| Cc1ccc(C(=O)NC2CCN(C(=O)NCc3ccccn3)CC2)o1 | > 100 µM |
| O=C(c1nc(=O)[nH]c2ccccc12)N1CCCC2(CCNC2)C1 (stereo not drawn) | > 100 µM |
| O=C(NCCCO)c1cc(-c2cc[nH]n2)n2ccccc12 | > 100 µM |
| CCc1ncc2c(n1)CN(Cc1nnc(Cc3ccccc3)o1)CC2 | > 100 µM |
| COc1ccnc(N2CCN(C(=O)Cc3ccsc3)CC2)n1 | > 100 µM |
| CN(C)C1CCN(C(=O)c2cc(-c3ccn(C)n3)n3ccccc23)CC1 | > 100 µM |
| Cc1nc(-c2ccsc2)ccc1C(=O)NCCCN1CCOCC1 | > 100 µM |
| O=C(c1cc(-c2ccco2)nc2c(Cl)cccc12)N1CC[C@H]2CNC[C@H]21 | > 100 µM |
| Cc1cnn(CCNc2cnc3ccccc3n2)c1 | > 100 µM |
| CCCn1[nH]cc/c1=N\C(=O)CN1CCc2cnc(C(C)C)nc2C1 | > 100 µM |
| CCC[C@@H]1CN(c2cncc(C(=O)N3CCOCC3)n2)C[C@H]1N(C)C | > 100 µM |
| NC(=O)CC1CCCN(c2cncc(SCc3ccccc3)n2)C1 (stereo not drawn) | > 100 µM |
| O=C(NCCOC1CCCCC1)c1ccc(-c2ccco2)[nH]c1=O | > 100 µM |
| COc1cc2ccccc2cc1C(=O)N1CCCC(c2nncn2C)C1 (stereo not drawn) | > 100 µM |
| Cc1nc(CN(C)C2CCN(Cc3ccc4c(c3)CCC4)C2)no1 (stereo not drawn) | > 100 µM |
| CCN(CC)C(=O)CN1CCCC1c1nc(C)c2c(n1)N(C)C(=O)CC2 (stereo not drawn) | > 100 µM |
| N#Cc1cccnc1N1CCC(C2CCCCCN2C(N)=O)CC1 (stereo not drawn) | > 100 µM |
| O=C1C(Nc2ccc3nccnc3n2)CCN1c1ccccc1 (stereo not drawn) | > 100 µM |
| Cc1cc(NCC(=O)N(C)C)c(C(N)=O)cc1F | > 100 µM |
| Cn1c(CN2CCCC(Cn3cncn3)C2)nc2ccccc21 (stereo not drawn) | > 100 µM |
| Cc1n[nH]c(=O)c2c(NC(=O)CN3CCCC(C(F)(F)F)C3)oc(C)c12 (stereo not drawn) | > 100 µM |
| CCSCCN1CCCN(S(C)(=O)=O)CC1 | > 100 µM |
| CS(=O)(=O)CC1(CNc2cc(C#N)c3cc(Cl)ccc3n2)CC1 | > 100 µM |
| CCn1cnnc1CNC(=O)N1CCN(Cc2ccco2)CC1 | > 100 µM |

| SMILES | IC50 |
| --- | --- |
| CC(C)n1nc2c(cc1=O)CN(Cc1nc3ccccc3o1)CC2 | > 100 µM |
| Cn1ccc2c(cnc3nc(-c4ccncc4)nn32)c1=O | > 100 µM |
| CCC[C@H]1CN(c2cncc(C(=O)N(C)C)n2)C[C@@H]1N(C)C | > 100 µM |
| Cc1ccc(NC2CCN(C(=O)CCc3ccncc3)CC2)nn1 | > 100 µM |
| O=C(c1cc(F)ccc1F)C1CCN(C(=O)c2cnccn2)CC1 | > 100 µM |
| c1ccc(CCCN2CCCC(Nc3cnc4ccccc4n3)C2)cc1 (stereo not drawn) | > 100 µM |
| CC(Cc1ccco1)NC(=O)Nc1ccc(N(C)C)nc1 (stereo not drawn) | > 100 µM |
| c1cc2nc(C3CCNCC3)nn2cc1NC1CCC1 | > 100 µM |
| CN(C)c1cc(C(F)(F)F)cc(-c2ccc(C(=O)O)cc2)n1 | > 100 µM |
| O=C(CCc1ccc(-c2ccccc2)[nH]1)N1CCCC(n2ccnc2)C1 (stereo not drawn) | > 100 µM |
| CCN1CCc2c(sc3c2C(=O)NC(/C=C\c2ccccc2)N3)C1 (stereo not drawn) | > 100 µM |
| CNC(=O)c1cc2c(nc1NCC1CC1)CCN(S(=O)(=O)C1CC1)CC2 | > 100 µM |
| COCCNCc1cc2c(C)cc(C)cc2n2c(=O)n(C)nc12 | > 100 µM |
| CCCNCc1ccc(-c2cc(N)nc3[nH]ccc23)cc1 | > 100 µM |
| CC(C)(C)OC(=O)NCCNC(=O)c1ccc(-c2ccco2)[nH]c1=O | > 100 µM |
| Cc1csc2ncc(-c3ccnc(N4CCCN(C)CC4)n3)c(=O)n12 | > 100 µM |
| c1cncc(CN2CCC(c3ccc4c(c3)OCO4)CC2)c1 | > 100 µM |
| Cc1cc(C)n(CC2CCCN2C(=O)c2ccnc(N(C)C)c2)n1 (stereo not drawn) | > 100 µM |
| CCNC(=O)c1c2c(N3CCN(C)CC3)ncnc2n2ccccc12 | > 100 µM |
| O=C(N1CCCC(n2cncn2)C1)C1(c2ccc(Cl)cc2)CCC1 (stereo not drawn) | > 100 µM |
| CC(C)N(CCC#N)C(=O)c1cnc(-c2ccc3c(c2)OCO3)s1 | > 100 µM |
| CCC1(CO)CCCN(c2ncccc2C#N)C1 (stereo not drawn) | > 100 µM |
| COc1ncc(NCc2ccc(F)cc2)cc1C(N)=O | > 100 µM |
| CCOc1ccc(Cl)c(C(=O)N(C)C)n1 | > 100 µM |
| O=C(c1c2c(N3CCCC3)ncnc2n2ccccc12)N1CCCC1 | > 100 µM |

| SMILES | IC50 |
| --- | --- |
| COc1ccccc1-c1nc(C(=O)N(C)C)n2ccncc12 | > 100 µM |
| CC1CCC(NC(=O)CNC2(c3ccc(Br)cc3)CCOCC2)CC1 (stereo not drawn) | > 100 µM |
| CN(C)c1cc(CNC(=O)Nc2ccc(N3CCCC3)nc2)ccn1 | > 100 µM |
| O=C(NCC(F)(F)F)c1ccc(-c2ccco2)[nH]c1=O | > 100 µM |
| Nc1nccnc1C(=O)NCCCNc1ccc(C(F)(F)F)cn1 | > 100 µM |
| CN(C)C(=O)CN1CCC2(CC1)CC(=O)c1ccc3ccccc3c1O2 | > 100 µM |
| N#Cc1cc2c(=O)n(CC(O)Cc3ccccc3)ccc2[nH]c1=O (stereo not drawn) | > 100 µM |
| COc1ccc2[nH]c(=O)c(CN(C)CCN3CCCC3)cc2c1 | > 100 µM |
| CCCn1cc(-c2cc(-c3c[nH]cn3)c(C#N)c(N)n2)c(C)n1 | > 100 µM |
| CN(C)c1ncc(-c2cc(C(=O)N3CCCC3)n(CC3CC3)c2)cn1 | > 100 µM |
| Cc1ccc(S(=O)(=O)N2CCCC3(CCCN3S(C)(=O)=O)C2)cc1F (stereo not drawn) | > 100 µM |
| COC(=O)COc1cccc(NS(=O)(=O)c2cc(C(=O)O)cs2)c1 | > 100 µM |
| CC(C)c1nn(C)c(Cl)c1CNCC(=O)N1CCN(C)CC1 | > 100 µM |
| Cn1cc(CN2CCCCC2c2ccc(-c3cccc(F)c3)nc2)cn1 (stereo not drawn) | > 100 µM |
| O=C(NC1CCCC1)c1cnn2c(-c3ccco3)ccnc12 | > 100 µM |
| O=C(c1cc(-c2ccco2)nc2c(Cl)cccc12)N1CCS(=O)(=O)CC1 | > 100 µM |
| COCCn1cnc(-c2nc(C(=O)N3CCOCC3)c3ccccn23)c1 | > 100 µM |
| Cc1c[nH]nc1C1CCCN1Cc1nccn1C (stereo not drawn) | > 100 µM |
| CS(=O)(=O)N1CCCCCC1C1CCN(c2ncccc2C#N)CC1 (stereo not drawn) | > 100 µM |
| CC(=O)N1CCC(c2cnc(NC3CCOCC3)cn2)CC1 | > 100 µM |
| CCC(C)NC(=O)c1ccc(-c2ccco2)[nH]c1=O (stereo not drawn) | > 100 µM |
| CNc1cncc(C2CCCN2C(=O)CCn2ccnc2)n1 (stereo not drawn) | > 100 µM |
| Cc1ccc(S(=O)(=O)N2CCOc3ccccc32)cc1C(N)=O | > 100 µM |
| c1ccc2nc(N3CCOC(Cn4cccn4)C3)cnc2c1 (stereo not drawn) | > 100 µM |
| Cc1n[nH]c(C)c1-c1cc(-c2ccc[nH]2)nc(N)c1C#N | > 100 µM |

| SMILES | IC50 |
| --- | --- |
| CN1CCC(NC(=O)c2cc(Br)cc(Cl)c2O)C1=O (stereo not drawn) | > 100 µM |
| Cc1cc(CN2CCN(C(=O)c3sccc3C3CC3)CC2)no1 | > 100 µM |
| Cc1cccc2c1C(=O)NC1(CCOCC1)N2 | > 100 µM |
| Cc1nc2ccccc2nc1NCc1cccc(OCC2CCCO2)c1 (stereo not drawn) | > 100 µM |
| COCCNc1nc(NCCc2ccccc2)nc2nccnc12 | > 100 µM |
| CN(C)c1cc(C(=O)N2CCN(c3cc(C#N)ccn3)CC2)ccn1 | > 100 µM |
| CCOc1cc(/C=C/c2ncc(C(=O)O)s2)cc(Br)c1OC | > 100 µM |
| COc1ccc(S(N)(=O)=O)cc1C(=O)N(C)Cc1cc(C)on1 | > 100 µM |
| CCc1nnc2n1CCN(C(=O)c1ccc(-c3ccco3)[nH]c1=O)C2 | > 100 µM |
| CCCNC(=O)c1cc(-c2ccn(C(C)C)n2)n2ccccc12 | > 100 µM |
| Cc1nn2c(N3CCCC(C(N)=O)C3)cc(-c3ccccc3)nc2c1C (stereo not drawn) | > 100 µM |
| Cc1nc(NC(=O)CN2C(=O)c3ccccc3NC2C(C)C)sc1C (stereo not drawn) | > 100 µM |
| O=C1NC2(CCN(CC(=O)N3CCOCC3)CC2)Nc2ccc(Br)cc21 | > 100 µM |
| Cc1nc(C)n(CC2CCCN(CCC(=O)NC3CCCCC3)C2)n1 (stereo not drawn) | > 100 µM |
| CCOc1ccccc1CC(=O)N1C[C@@H](C(=O)O)[C@H](c2ccncc2)C1 | > 100 µM |
| Cc1ccc(CN(CC(=O)N2CCOC(C)C2)C2CC2)cc1 (stereo not drawn) | > 100 µM |
| CC(=O)N1CCCCCC1C1CCN(c2ncccc2C#N)CC1 (stereo not drawn) | > 100 µM |
| COc1ccc2c(c1OC)Cc1c-2nc(N)c(C#N)c1C1CCOC1 (stereo not drawn) | > 100 µM |
| Cc1cc(NCC(=O)N(C)Cc2cccs2)c(C(N)=O)cc1F | > 100 µM |
| COCCN1CC(C(=O)NCc2cccnc2-n2cccn2)CC1=O (stereo not drawn) | > 100 µM |
| CN(Cc1nnc(-c2ccco2)o1)C1CCCN(c2cccnn2)C1 (stereo not drawn) | > 100 µM |
| COCCN1CCC(CNc2cnc3ccccc3n2)CC1 | > 100 µM |
| CC(C)c1nnc2n1CCN(Cc1csc(CC(=O)N(C)C)n1)C2 | > 100 µM |

Reference: ChEMBL document CHEMBL3988442, “University of Dundee, Small-Polar-MMV Screening Library” (2021)
